Laboratory results: US11053205B2, “Phenazine derivatives as antimicrobial agents” (University of Florida Research Foundation, Incorporated, priority 2017, dated 2021)
Values after ≈ are worked out from the molar mass of the structure shown. Read-outs that look alike come from different tables or passages of the source. Marks after values point to notes of the source that are not given here.

Legend:
MRSA BAA-1707 = assay: MIC, broth microdilution (CLSI); details: 16 to 18 hours at 37° C.; 0.10 = lowest concentration tested
MRSA BAA-1707 biofilms = assay: Calgary Biofilm Device (CBD) assay, MBC/MBEC; details: for MRSA BAA-1707 MBEC: biofilm eradication
MRSE 35984 = assay: MIC, broth microdilution (CLSI); details: for MRSE 35984 MIC: 16 to 18 hours at 37° C.
VRE 700221 = assay: MIC, broth microdilution (CLSI); details: for VRE 700221 MIC: 16 to 18 hours at 37° C.
MRSE 35984 biofilms = assay: Calgary Biofilm Device (CBD) assay, MBC/MBEC; details: CBD, biofilm eradication

Structure (SMILES)	MRSA BAA-1707 MIC (MRSA BAA-1707)	MRSE 35984 MIC (MRSE 35984)	VRE 700221 MIC (VRE 700221)	other results
COCCOCCOCCOCCOC(=O)Oc1c(Br)cc(Br)c2nc3cc(Cl)ccc3nc12 [77A]	0.0005 µM			
COCCOCCOCCOCCOC(=O)Oc1c(Br)cc(Br)c2nc3cc(Oc4ccccc4)ccc3nc12 [78A]	0.1 µM			
CC1=C(C)C(=O)C(COC(=O)OCOc2c(Br)cc(Br)c3nc4ccccc4nc23)=C(C)C1=O [86A]	2.35 µM			MRSA BAA-1707 MBEC (MRSA BAA-1707 biofilms; CBD): 75 µM
OC[C@H]1O[C@@H](Oc2c(Br)cc(Br)c3nc4ccccc4nc23)[C@H](O)[C@@H](O)[C@@H]1O [Compound 28]	>100 µM	>100 µM	>100 µM	
COCCOCCOCCOC(=O)OCOc1c(Br)cc(Br)c2nc3ccccc3nc12 [Compound 30]	>100 µM	>100 µM	>100 µM	
CS(=O)(=O)N1CCN(C(=O)Oc2c(Br)cc(Br)c3nc4ccccc4nc23)C1=O [Compound 31]		0.78 µM	3.13 µM	MRSA BAA-1707 MBEC (MRSA BAA-1707 biofilms; CBD): 75 µM
Oc1c(Br)cc(Br)c2nc3cc(Oc4ccccc4)ccc3nc12 [Compound 34]	0.1 µM	0.1 µM	0.2 µM	MRSA BAA-1707 MBEC (MRSA BAA-1707 biofilms; CBD): 2.35 µM
CCN(CC)c1ccc2nc3c(O)c(Br)cc(Br)c3nc2c1Br [Compound 35]	0.15 µM	0.1 µM	0.30 µM	MRSA BAA-1707 MBEC (MRSA BAA-1707 biofilms; CBD): 4.69 µM; MRSE 35984 MBEC (MRSE 35984 biofilms): 1.56 µM
CCc1cccc2nc3c(Br)cc(Br)c(O)c3nc12 [Compound 37]	>100 µM	>100 µM	>100 µM	
CCOC(=O)c1ccc2nc3c(O)c(Br)cc(Br)c3nc2c1 [Compound 38]	>100 µM			
Cc1ccc2nc3c(Br)cc(Br)c(O)c3nc2c1C [Compound 57A]	>100 ^ μM	>100 µM	>100 µM	
CCc1cccc2nc3c(Br)cc(Br)c(O)c3nc12 [Compound 58A]	>100 ^ μM	>100 µM	>100 µM	
CCOc1ccc2nc3c(O)c(Br)cc(Br)c3nc2c1 [Compound 60A]	>100 ^ μM	18.8^a μM	>100 µM	
CCOC(=O)c1ccc2nc3c(O)c(Br)cc(Br)c3nc2c1 [Compound 62A]			2.35^a μM	
CCCc1cn(Cc2ccc3nc4c(OC(C)=O)c(Br)cc(Br)c4nc3c2)nn1 [Compound 74A]	100 ^ μM		>100 µM	
COCCOCCOCCOCCOC(=O)Oc1c(Br)cc(Br)c2nc3cc(Oc4ccccc4)ccc3nc12 [Compound 78A]	0.1^b μM	0.1^b μM	0.3^a μM	Hemolysis at 200 μM (human red blood cells): ≤1%; MRSA BAA-1707 MBEC (MRSA BAA-1707 biofilms; CBD): 4.69 µM; MRSA BAA-1707 MBC (MRSA BAA-1707 biofilms; CBD, planktonic killing): 18.8 µM
OC[C@H]1O[C@@H](Oc2c(Br)cc(Br)c3nc4ccccc4nc23)[C@H](O)[C@@H](O)[C@@H]1O [Compound 79A]				Hemolysis at 200 μM (human red blood cells): ≤1%
COCCOCCOCCOC(=O)OCOc1c(Br)cc(Br)c2nc3ccccc3nc12 [Compound 80A]	>100 µM	>100 µM	>100 µM	Hemolysis at 200 μM (human red blood cells): 1.4%
Cc1ccc2nc3c(O)c(Br)cc(Br)c3nc2c1C [HP 1-19]				Hemolysis at 200 μM (human red blood cells; human, 1 h, 200 μM, pH 7.2): 5.3%; MIC (MRSE 35984; Staphylococcus epidermidis, MRSE, read-out: MRSE 35984 MIC, 16 to 18 hours at 37° C.): 0.3 µM (≈ 0.115 µg/mL); MIC (VRE 700221; Enterococcus, VRE, read-out: VRE 700221 MIC, 16 to 18 hours at 37° C.): 0.15 µM (≈ 0.0573 µg/mL)
CCCc1cn(Cc2ccc3nc4c(OC(C)=O)c(Br)cc(Br)c4nc3c2)nn1 [compound 74]		18.8 µM		
CC(=O)NC[C@H]1CN(c2ccc(N3CCOCC3)c(F)c2)C(=O)O1 [linezolid, reference compound]	12.5 ^ μM			Hemolysis at 200 μM (human red blood cells; human, 1 h, 200 μM, pH 7.2): ≤1%; MBC (MRSA BAA-1707 biofilms; Staphylococcus aureus, read-out: MRSA BAA-1707 MBC): 31.3 µM (≈ 10.6 µg/mL); biofilm eradication activities against MRSA biofilms (MRSA BAA-1707 biofilms; at 2,000 μM (highest concentration tested)): no biofilm eradication activities
